One data set deals with G-401 cells. Kind of data set: Cell proliferation inhibition experiment using G-401 cells. The settings on record: Homo sapiens, 72 h, cultured for 3 days, CellTiter-Glo. The format is cell-based. Summed up: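 Malignant rhabdoid tumor-derived cells, grown in McCoy's 5A with 10% FBS, were seeded at 500 cells/well and dosed one day later (final DMSO 0.1%). After 3 days of culture at 37° C, viability was read by CellTiter-Glo luminescence.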
Background: Cellular ATP, detected with luciferase, serves as a proxy for viable cell number.

Data set [1] in a line: Membrane permeability test (PAMPA). The format is in vitro ADME. Summed up:
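Donor compartment held compound in system solution over a GIT Lipid-0 membrane, with sink buffer on the acceptor side; incubation 4 h at 37° C. Donor and acceptor concentrations were read by UV (190-500 nm), or by LC-MS for weakly absorbing compounds, and Pe (10^−6 cm/sec) was calculated.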
In general terms: In PAMPA a lipid-coated filter parts donor from acceptor wells.

The target of another data set is recombinant p300 (Homo sapiens (Human), UniProt Q09472). Kind of data set: HAT activity inhibition experiment (SensoLyte HAT(p300) Assay Kit). The format is biochemical. The following applies: recombinant p300, histone H3 peptide, acetyl CoA. The gist of the method: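 Recombinant human p300 preincubated with compound 10 min at room temperature, then acetyl-CoA and histone H3 peptide added and reacted 30 min at 37 °C. After stop, developer added for 30 min at room temperature in the dark; fluorescence read at Ex 389/Em 513 nm.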
recombinant p300, sequence (Q09472 whole entry): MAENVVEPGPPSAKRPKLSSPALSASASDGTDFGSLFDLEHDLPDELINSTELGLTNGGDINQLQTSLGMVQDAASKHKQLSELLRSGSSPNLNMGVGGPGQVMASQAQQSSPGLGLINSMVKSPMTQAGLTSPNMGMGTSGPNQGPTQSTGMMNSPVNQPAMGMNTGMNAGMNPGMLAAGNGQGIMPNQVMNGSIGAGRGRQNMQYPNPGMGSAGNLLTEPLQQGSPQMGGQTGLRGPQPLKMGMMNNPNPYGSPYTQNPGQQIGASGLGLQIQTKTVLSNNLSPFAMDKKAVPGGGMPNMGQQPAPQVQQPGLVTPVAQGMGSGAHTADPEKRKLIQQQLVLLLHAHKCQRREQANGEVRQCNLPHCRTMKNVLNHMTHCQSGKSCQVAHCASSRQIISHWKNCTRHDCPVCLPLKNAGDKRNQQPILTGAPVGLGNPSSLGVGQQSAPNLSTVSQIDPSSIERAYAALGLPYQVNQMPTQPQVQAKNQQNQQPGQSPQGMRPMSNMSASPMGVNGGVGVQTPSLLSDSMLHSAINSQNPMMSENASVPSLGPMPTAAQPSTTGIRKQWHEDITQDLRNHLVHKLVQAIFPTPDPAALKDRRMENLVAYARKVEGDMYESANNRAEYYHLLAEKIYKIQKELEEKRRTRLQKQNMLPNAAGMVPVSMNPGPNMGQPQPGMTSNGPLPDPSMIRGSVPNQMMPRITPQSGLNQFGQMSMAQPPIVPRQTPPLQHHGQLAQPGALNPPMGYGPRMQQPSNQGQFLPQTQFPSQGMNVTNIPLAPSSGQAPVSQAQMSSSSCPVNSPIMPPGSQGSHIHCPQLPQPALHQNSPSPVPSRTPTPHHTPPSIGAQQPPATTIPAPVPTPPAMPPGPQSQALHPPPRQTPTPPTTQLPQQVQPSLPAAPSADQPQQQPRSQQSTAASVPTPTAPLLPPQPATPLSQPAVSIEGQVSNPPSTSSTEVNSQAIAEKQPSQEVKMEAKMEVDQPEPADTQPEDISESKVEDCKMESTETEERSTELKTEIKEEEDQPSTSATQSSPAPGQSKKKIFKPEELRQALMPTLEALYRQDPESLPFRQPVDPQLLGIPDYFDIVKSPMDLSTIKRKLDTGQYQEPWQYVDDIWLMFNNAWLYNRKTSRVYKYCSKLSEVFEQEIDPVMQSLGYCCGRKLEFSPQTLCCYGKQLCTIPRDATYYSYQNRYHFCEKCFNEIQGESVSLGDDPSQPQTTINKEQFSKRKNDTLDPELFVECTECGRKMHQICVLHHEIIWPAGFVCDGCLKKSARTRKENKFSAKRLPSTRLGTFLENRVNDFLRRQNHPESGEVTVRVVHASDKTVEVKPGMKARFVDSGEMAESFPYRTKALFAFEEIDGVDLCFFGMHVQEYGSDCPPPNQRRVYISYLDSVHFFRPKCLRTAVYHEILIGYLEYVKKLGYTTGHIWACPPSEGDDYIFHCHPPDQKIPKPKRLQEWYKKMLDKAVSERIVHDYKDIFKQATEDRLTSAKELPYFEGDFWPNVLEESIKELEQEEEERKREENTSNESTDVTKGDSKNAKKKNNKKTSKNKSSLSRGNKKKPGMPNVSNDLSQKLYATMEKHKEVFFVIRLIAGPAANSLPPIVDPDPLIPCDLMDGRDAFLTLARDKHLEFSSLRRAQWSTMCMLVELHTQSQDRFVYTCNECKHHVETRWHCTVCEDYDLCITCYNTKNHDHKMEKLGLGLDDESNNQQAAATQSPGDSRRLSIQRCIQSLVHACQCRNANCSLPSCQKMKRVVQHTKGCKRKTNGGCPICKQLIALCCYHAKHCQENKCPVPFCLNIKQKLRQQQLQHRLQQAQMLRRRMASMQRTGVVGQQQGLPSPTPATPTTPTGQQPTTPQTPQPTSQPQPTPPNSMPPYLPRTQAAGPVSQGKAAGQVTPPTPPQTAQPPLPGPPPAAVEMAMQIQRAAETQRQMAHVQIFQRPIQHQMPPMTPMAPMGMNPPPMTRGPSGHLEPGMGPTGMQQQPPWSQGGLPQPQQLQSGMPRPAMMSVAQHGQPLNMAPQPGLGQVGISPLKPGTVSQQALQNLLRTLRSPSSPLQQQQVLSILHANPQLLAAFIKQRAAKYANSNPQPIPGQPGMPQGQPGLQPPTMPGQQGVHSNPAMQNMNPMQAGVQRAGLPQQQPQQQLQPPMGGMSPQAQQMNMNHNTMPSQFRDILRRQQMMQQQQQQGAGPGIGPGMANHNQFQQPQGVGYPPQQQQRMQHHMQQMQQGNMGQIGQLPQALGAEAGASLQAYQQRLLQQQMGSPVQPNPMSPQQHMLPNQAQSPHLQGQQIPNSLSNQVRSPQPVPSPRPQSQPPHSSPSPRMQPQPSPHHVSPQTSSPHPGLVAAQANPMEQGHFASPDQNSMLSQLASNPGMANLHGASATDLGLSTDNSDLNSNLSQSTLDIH

In the next data set the test system is Kuramochi cells. In words: Cell proliferation inhibition experiment using Kuramochi cells. The following applies: 144 h, cultured for 6 days, CellTiter-Glo. The format is cell-based. On the procedure:
Kuramochi cells (derived from ovarian cancer) were obtained from JCRB (Japanese Collection of Research Bioresources) cell bank. Kuramochi cells were cultured in RPMI-1640 medium containing 10% fetal bovine serum and 1% penicillin/streptomycin under conditions of 37° C. and 5% CO2.
500 cells per well were seeded in a 384-well plate. One day after seeding, Examples 3, 7, 9, 10, 11, 20, 23 to 25, and 30 to 34 were added so that the final concentration of DMSO was 0.1%, and the cells were cultured for 6 days. After the culture was completed, the cell viability was measured using CellTiter-Glo Luminescent Cell Viability Assay (Promega, G7570).

Data set [2] in a line: Pharmacokinetic study in mice. The format is in vivo. The settings on record: for AUC / clearance / half-life / Vd / Cmax: female, BALB/c (BALB/cAnN CrlCrlj), mouse, plasma; for Vd: read-out: Vdss. On the procedure: The test compound was administered to 7-week-old female BALB/c (BALB/cAnN CrlCrlj) mice intravenously (dosage: 1 mg/kg) in a 50% PEG solution (0.01 mol/L HCl) or orally (dosage: 10 mg/kg) in a 0.5% methylcellulose aqueous solution, and blood was collected at the following times:
Intravenous administration: 5 min, 15 min, 30 min, 1 hr, 2 hr, 4 hr, 6 hr, and 24 hr after administration
Oral administration: 15 min, 30 min, 1 hr, 2 hr, 4 hr, 6 hr, and 24 hr after administration
The collected blood was centrifuged at 3000 rpm×10 min using a refrigerated centrifuge set at 4° C., and the obtained plasma was measured by LC-MS. A calibration curve was prepared from the value (peak ratio) obtained by dividing the peak area of the test substance by the peak area of the internal standard substance in MS and the concentration of the plasma calibration curve sample. The concentration in the sample was calculated from the peak ratio and the calibration curve of each sample.

The test system of a further data set is RMGI cells. In words: Cell proliferation inhibition experiment using RMGI cells. The format is cell-based. The settings on record: Homo sapiens, RMG-I, 144 h, cultured for 6 days, CellTiter-Glo. On the procedure: RMGI cells (derived from ovarian cancer) were obtained from JCRB cell bank. RMGI cells were cultured in Ham's F12 medium containing 10% fetal bovine serum and 1% penicillin/streptomycin under conditions of 37° C. and 5% CO2.
200 cells per well were seeded in a 384-well plate. One day after seeding, Examples 3, 7, 9, 10, 11, 20, and 23 to 25 were added so that the final concentration of DMSO was 0.1%, and the cells were cultured for 6 days. After the culture was completed, the cell viability was measured using CellTiter-Glo Luminescent Cell Viability Assay (Promega, G7570).

In the next data set the target is hSERT (Homo sapiens (Human), UniProt P31645). In words: Serotonin receptor inhibitory activity evaluation (binding assay, HEK293/hSERT membranes). The following applies: HEK293/hSERT membrane preparation, [3H]Paroxetin. On the procedure: The binding evaluation assay was outsourced to Eurofins. Specifically, HEK293/hSERT cells were homogenized in a buffer consisting of 100 mmol/L NaCl, 1 μmol/L Leupeptin, 10 μmol/L PMSF, and 50 mmol/L Tris-HCl (pH7.4). The membrane pellet obtained by centrifugation was resuspended in an incubation buffer consisting of 50 mmol/L Tris-HCl (pH 7.4), 120 mmol/L NaCl, and 5 mmol/L KCl to prepare a membrane preparation. The test compound (1-10 μmol/L DMSO solution), the membrane preparation, and 0.4 nmol/L [^3H]Paroxetin were mixed and incubated at 25° C. for 60 minutes. The cell membrane-[^3H]Paroxetin complex was bound to a GF/B filter mat by vacuum filtration and washed with 50 mmol/L Tris-HCl (pH 7.4). The effect on the receptor was assessed by measuring radioactivity using a scintillation counter.
hSERT, sequence (P31645 whole entry): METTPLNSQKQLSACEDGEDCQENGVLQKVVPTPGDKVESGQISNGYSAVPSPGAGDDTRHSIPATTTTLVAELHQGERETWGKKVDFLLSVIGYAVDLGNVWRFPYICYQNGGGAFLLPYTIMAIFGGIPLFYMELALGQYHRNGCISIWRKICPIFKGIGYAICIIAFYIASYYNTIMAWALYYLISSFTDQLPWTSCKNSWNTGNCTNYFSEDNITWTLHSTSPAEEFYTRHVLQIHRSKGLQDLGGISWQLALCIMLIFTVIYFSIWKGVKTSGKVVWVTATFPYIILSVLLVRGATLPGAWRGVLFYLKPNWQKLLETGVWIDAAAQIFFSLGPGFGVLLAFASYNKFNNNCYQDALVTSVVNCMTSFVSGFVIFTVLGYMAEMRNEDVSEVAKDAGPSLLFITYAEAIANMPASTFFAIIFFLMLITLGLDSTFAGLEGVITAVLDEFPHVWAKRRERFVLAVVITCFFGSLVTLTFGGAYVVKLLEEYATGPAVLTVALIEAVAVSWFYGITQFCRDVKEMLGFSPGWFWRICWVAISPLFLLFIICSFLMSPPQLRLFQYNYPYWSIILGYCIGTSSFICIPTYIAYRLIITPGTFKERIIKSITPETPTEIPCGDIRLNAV

A further data set has as its target hDAT (Homo sapiens (Human), UniProt Q01959). In words: Dopamine receptor inhibitory activity evaluation (binding assay, CHO-S/hDAT membranes). The settings on record: CHO-S/hDAT membrane preparation. On the procedure:
The binding evaluation assay was outsourced to Eurofins. Specifically, CHO-S/hDAT cells were homogenized in an incubation buffer consisting of 50 mmol/L Tris-HCl, pH 7.4, 100 mmol/L NaCl, 1 μmol/L Leupeptin, and 10 μmol/L PMSF. The membrane pellet obtained by centrifugation was resuspended in the incubation buffer to prepare a membrane preparation. The test compound (1-10 μmol/L DMSO solution), the membrane preparation, and 0.15 nmol/L […] were mixed and incubated at 4° C. for 180 minutes. The cell membrane-[^125I]RTI-55 complex was bound to a GF/B filter mat by vacuum filtration and washed with 50 mmol/L Tris-HCl, pH 7.4. The effect on the receptor was assessed by measuring radioactivity using a scintillation counter.

[3] abbreviates: pH 5.0, 37° C., read-out: pH 5.0 Pe.
Where [4] appears, read: pH 7.4, 37° C., read-out: pH 7.4 Pe.

Where two headings read alike, the source gives them in different places.

hDAT, sequence (Q01959 whole entry): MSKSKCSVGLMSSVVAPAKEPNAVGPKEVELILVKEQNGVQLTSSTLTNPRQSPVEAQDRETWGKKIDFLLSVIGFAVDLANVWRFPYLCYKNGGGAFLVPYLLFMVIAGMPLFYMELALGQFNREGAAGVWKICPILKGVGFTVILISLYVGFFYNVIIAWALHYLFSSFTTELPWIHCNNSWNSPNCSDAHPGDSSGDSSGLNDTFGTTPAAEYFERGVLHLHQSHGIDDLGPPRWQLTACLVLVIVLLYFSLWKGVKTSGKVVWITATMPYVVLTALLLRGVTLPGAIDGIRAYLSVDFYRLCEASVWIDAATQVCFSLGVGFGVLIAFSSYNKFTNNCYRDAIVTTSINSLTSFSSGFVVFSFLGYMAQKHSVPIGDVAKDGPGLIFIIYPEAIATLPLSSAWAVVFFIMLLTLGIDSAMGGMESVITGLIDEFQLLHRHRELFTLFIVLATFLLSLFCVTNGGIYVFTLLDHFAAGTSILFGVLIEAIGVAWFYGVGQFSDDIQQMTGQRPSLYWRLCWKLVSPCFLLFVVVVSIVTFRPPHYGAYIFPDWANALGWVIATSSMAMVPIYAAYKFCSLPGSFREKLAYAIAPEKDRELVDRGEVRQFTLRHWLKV

In the case of `O=C1N[C@]2(C[C@@H](F)c3cc(-c4cnn(C5CN(C6COC6)C5)c4)ccc32)C(=O)N1CC(=O)N(Cc1ccc(F)cc1)C1(C(F)(F)F)COC1` [Example 3, 2-[(1′S,3′R)-3′-fluoro-5′-{1-[1-(oxetan-3-yl)azetidin-3-yl]-1H-pyrazol-4-yl}-2,5-dioxo-2′,3′-dihydrospiro[imidazolidine-4,1′-inden]-1-yl]-N-[(4-fluorophenyl)methyl]-N-[3-(trifluoromethyl)oxetan-3-yl]acetamide], half-maximal inhibition with G-401 cells (IC50) required 44 nM. In data set [1] (setting [3]), the Papp at 4 h is 14.9 ×10⁻⁶ cm/s. For the same molecule, the Papp at 4 h in data set [1] (setting [4]) was determined as 17.7 ×10⁻⁶ cm/s. Also, on recombinant p300, the IC50 – broadly, the concentration at which inhibition is half-maximal – stood at 0.6 nM. The half-inhibitory concentration (IC50) with Kuramochi cells turned out to be 91 nM. In data set [2] (intravenous, 1 mg/kg), the AUC (in general, the area under the concentration-time curve, a measure of exposure) came to 764 ng·h/mL; the clearance – broadly, the rate of elimination divided by the concentration – amounted to 20.6 mL/min/kg; the half-life – broadly, how long it takes for the measured level to halve – is 1.8 h; the Vd turned out to be 2 L/kg. Also, in data set [2] (oral, 10 mg/kg), the exposure (AUC) is 3890 ng·h/mL, the peak level (Cmax) was 2670 ng/mL and the BA is 50.9%. The same molecule yielded a concentration for half-maximal inhibition (IC50) with RMGI cells of 18 nM.
In the case of `O=C1N[C@]2(C[C@@H](F)c3cc(-c4cnn(C5CN(C6COC6)C5)c4)ccc32)C(=O)N1CC(=O)N(Cc1ccc(F)cn1)C1(C(F)(F)F)CC(F)(F)C1` [Example 9, N-[3,3-difluoro-1-(trifluoromethyl)cyclobutyl]-2-[(1′S,3′R)-3′-fluoro-5′-{1-[1-(oxetan-3-yl)azetidin-3-yl]-1H-pyrazol-4-yl}-2,5-dioxo-2′,3′-dihydrospiro[imidazolidine-4,1′-inden]-1-yl]-N-[(5-fluoropyridin-2-yl)methyl]acetamide], the IC50 in the data set on G-401 cells is 38 nM. For the same molecule, the Papp at 4 h in data set [1] (setting [3]) was determined as 13.3 ×10⁻⁶ cm/s. For the same molecule, the Papp at 4 h in data set [1] (setting [4]) turned out to be 15.3 ×10⁻⁶ cm/s. It took 184 nM to reach half-maximal inhibition in the data set with Kuramochi cells (IC50). For the same molecule, in data set [2] (intravenous, 1 mg/kg), the AUC stood at 1200 ng·h/mL, the clearance is 11.9 mL/min/kg, the half-life was 2.43 h and the Vd is 2 L/kg. Besides, in data set [2] (oral, 10 mg/kg), the AUC is 13100 ng·h/mL; the Cmax (in general, the highest concentration seen after dosing) was 5370 ng/mL; the BA came to 109.1%. The molecule also gave a concentration for half-maximal inhibition (IC50) with RMGI cells of 24 nM.
On to `CN1CC(N(Cc2ccc(F)cn2)C(=O)CN2C(=O)N[C@]3(C[C@@H](F)c4cc(-c5cnn(CC6COC6)c5)ccc43)C2=O)(C(F)(F)F)C1` [Example 25, 2-[(1′S,3′R)-3′-fluoro-5′-{1-[(oxetan-3-yl)methyl]-1H-pyrazol-4-yl}-2,5-dioxo-2′,3′-dihydrospiro[imidazolidine-4,1′-inden]-1-yl]-N-[(5-fluoropyridin-2-yl)methyl]-N-[1-methyl-3-(trifluoromethyl)azetidin-3-yl]acetamide], for which the values for the inhibition at 10 µM at hSERT and on hDAT were 2% and 9%, respectively. For the same molecule, the concentration for half-maximal inhibition (IC50) in the data set with G-401 cells worked out at 59 nM; on recombinant p300, 5.7 nM; with Kuramochi cells it was 424 nM; in the data set on RMGI cells it was 41 nM. Further, the values for the Papp at 4 h in data set [1] (setting [3]) and in data set [1] (setting [4]) were 1 ×10⁻⁶ cm/s and 6.1 ×10⁻⁶ cm/s, respectively. Further, the area under the curve (AUC) in data set [2] (intravenous, 1 mg/kg) turned out to be 672 ng·h/mL; in data set [2] (oral, 10 mg/kg), 1310 ng·h/mL. The molecule also registered a Cmax in data set [2] (oral, 10 mg/kg) of 1630 ng/mL. The BA in data set [2] (oral, 10 mg/kg) is on record as 19.6%.
In the case of `CN1CC(N(Cc2ccc(F)cc2)C(=O)CN2C(=O)N[C@]3(C[C@@H](F)c4cc(-c5cnn(C(C)(C)C#N)c5)ccc43)C2=O)(C(F)(F)F)C1` [Example 11, 2-{(1′S,3′R)-5′-[1-(2-cyanopropan-2-yl)-1H-pyrazol-4-yl]-3′-fluoro-2,5-dioxo-2′,3′-dihydrospiro[imidazolidine-4,1′-inden]-1-yl}-N-[(4-fluorophenyl)methyl]-N-[1-methyl-3-(trifluoromethyl)azetidin-3-yl]acetamide], half-maximal inhibition in the data set with G-401 cells (IC50) required 10 nM. Also, the Papp at 4 h in data set [1] (setting [3]) stood at 24.1 ×10⁻⁶ cm/s. Moreover, in data set [1] (setting [4]), the Papp at 4 h was 27.2 ×10⁻⁶ cm/s. The IC50 at recombinant p300 turned out to be 2.1 nM. For the same molecule, the half-inhibitory concentration (IC50) in the data set on Kuramochi cells came to 48 nM. For the same molecule, in data set [2] (intravenous, 1 mg/kg), the exposure (AUC) was found to be 446 ng·h/mL, the clearance is 33.7 mL/min/kg, the half-life is 2.12 h and the Vd is 4.1 L/kg. In addition, in data set [2] (oral, 10 mg/kg), the AUC turned out to be 2500 ng·h/mL, the concentration peaked (Cmax) at 1720 ng/mL and the BA came out at 56.2%. The same molecule showed a 50% inhibitory concentration (IC50) in the data set with RMGI cells of 5 nM.

Values taken from patent publication US20250257055A1, “TERTIARY AMIDE DERIVATIVES SUBSTITUTED WITH 4-MEMBERED RING STRUCTURE” (Sumitomo Pharma Co., Ltd., priority 2024, published 2025).
